Measurements reported in article PMC8746441, “Design, Synthesis and Preclinical Assessment of ^99mTc-iFAP for In Vivo Fibroblast Activation Protein (FAP) Imaging” (Molecules, 2022).

Key:
[1] = tested on: healthy laboratory Balb-C mice; experiment: Adverse effects of the cold ligand; format: in vivo; settings: dose of 40 mg/kg
[2] = Radiochemical stability of the radiopharmaceutical after labeling (radio-HPLC/ITLC-SG); format: physicochemical; settings: 24 h after labeling
Description: For radiolabeling, the lyophilized formulation was reconstituted with 1 mL of a 0.2 M phosphate buffer and 1 mL of ^99mTcO4Na (740–1110MBq). The reaction was incubated in a block heater for 15 min at 92 °C. The radiochemical purity was 98% as determined by radio-HPLC (Discovery C18; 5 μm particle size; L × I.D. 25 cm × 4.6 mm; linear gradient: 0.1% TFA/water (A) and 0.1% TFA/acetonitrile (B) flow rate of 1 mL/min. A-100% for 3 min, changed to A-50% over 10 min and maintained for 10 min, changed A-30% over 3 min and returned to A-100% over 4 min).
ITLC-SG (instant thin layer chromatography-silica gel) was also carried out for the assessment of ^99mTc-iFAP radiochemical purity. Three mobile phases were used, the 2-butanone phase was employed for the identification of free ^99mTcO4^− (Rf = 1), where ^99mTc-iFAP, ^99mTc-EDDA/tricine and ^99mTc-colloid remained in the origin (Rf = 0); 0.1 M sodium citrate (pH 5) identified free ^99mTcO4 (Rf = 1) and ^99mTc-EDDA/tricine coligands (Rf = 1), where ^99mTc-iFAP and ^99mTc-colloid remained in the origin (Rf = 0); finally, the third phase was used for the determination of ^99mTc-colloid (Rf = 0) and consisted of ammonium acetate-methanol (1:1 v/v) ( ^99mTcO4^−, ^99mTc-iFAP and ^99mTc-EDDA run with the solvent front; Rf = 1).

[3] = Human serum stability and protein binding (size-exclusion radio-HPLC); format: in vitro ADME
Description: The ^99mTc-iFAP (37 MBq, 100 µL, 14 nmol) was incubated at 37 °C with 500 µL of human serum (IST-909c certified human serum sample, Sigma-Aldrich) and diluted in 0.5 mL of a 0.9% NaCl solution. Twenty microliters of the mixture were sampled at 30 min, 3 and 24 h for size-exclusion radio-HPLC analysis using a ProteinPak 300SW Waters column and 0.01M PBS as the mobile phase (1 mL/min). The percentage of recovery (quantification of the radioactivity recovered from the HPLC column) was determined by injecting 20 µL of the ^99mTc-iFAP sample into the HPLC system and 20 µL into a 50 mL volumetric flask, which was filled with 0.01 M PBS (flask 1). The column was eluted with 0.01 M PBS for 50 min (1 mL/min) and the effluent was collected in a 50 mL volumetric flask (flask 2). Aliquots of 1 mL from both flask 1 and flask 2 were measured on an HPGe detector (ORTEC). The percentage of recovery was calculated by dividing the counts in flask 2 by the counts in flask 1 then multiplied by 100.

[4] = tested on: N30 (primary human stromal endometrial cells, FAP positive); experiment: Cellular uptake and internalization; format: cell-based; settings: 1 h, 37 °C
Description: The ^99mTc-iFAP uptake and internalization by N30 (FAP +) and fibroblast (FAP −) cells were determined by using 4 × 10^5 cells/500 µL of PBS in test tubes (n = 6). Both cells lines were incubated for 1 h at 37 °C with 10 µL of ^99mTc-iFAP (37 kBq, 0.4 nmol iFAP). After incubation, three washes with 500 µL of PBS were performed by centrifugation (700 g/5 min). By using a crystal scintillation (NaI(Tl)) well-type detector (MNL Inc., Littleton, CO, USA), the radioactivity in the cell pellet was evaluated. A standard volume with the initial activity was used to represent 100%, and the cell uptake activity was assessed with regard to this value. For the evaluation of internalization, the cell pellets were treated at 37 °C for 5 min with 500 µL of an acid glycine solution (0.1 M glycine, pH adjusted to 2.8 with HCl), and centrifuged (700 g/5 min). The cell pellet was incubated with 1 M NaOH for 5 min and centrifuged (700 g/5 min). The radioactivity of the supernatant was calculated as the percentage of internalization with regard to the initial activity of the standard volume as mentioned above.

[5] = tested on: mice with induced Hep-G2 tumors; experiment: Biodistribution and biokinetic models in tumor-bearing mice; format: in vivo; settings: for Biodistribution, Blood / Biodistribution, Bone / Biodistribution, Heart / Biodistribution, Tumor / Biodistribution, Intestine / Biodistribution, Kidneys / Biodistribution, Liver / Biodistribution, Lung / Biodistribution, Muscle (left thigh) / Biodistribution, Pancreas / Biodistribution, Spleen / Biodistribution, Stomach: i.v.
Description: The biodistribution studies in Balb-c male mice were carried out in agreement with Official Mexican Norm 062-ZOO-1999. Hep-G2 tumors were induced in mice (n = 15) by subcutaneous injection (right thigh; positive control) of 1 × 10^6 cells suspended in 0.2 mL of phosphate-buffered saline. Killed Klebsiella pneumoniae bacteria (heated for 2 h at […] and verified for absence of growth after culturing), aseptically suspended in 0.2 mL of PBS (1 × 10^6 bacteria), were subcutaneously administered into the left thigh of mice in order to induce inflammation (negative control). After the tumor was visible, ^99mTc-iFAP (50 µL, 18 MBq, 7 nmol of iFAP) was administered intravenously into the tail of each mouse. Three mice were selected for micro-SPECT/CT imaging, whereas the rest were sacrificed to be used in the biodistribution study. The times of evaluation were 15 min, 30 min, 2 h and 24 h. After the mice were sacrificed, the blood and main organs were removed, weighted and their radioactivity measured using a […] detector, in order to calculate the percentage of the injected dose per gram of tissue (%ID/g) by using an initial standard volume (100% of the initial injected activity). Biokinetic models of the four main target tissues/organs (blood, tumor, liver and kidneys) were obtained by fitting ^99mTc-iFAP time-activity curves to functions with two or three exponential terms Equation (2):(2) A(t)=Ae^−at+Be^−bt+Ce^−ct

[6] = tested on: tumor microenvironment of different types of cancer; experiment: Preliminary clinical SPECT/CT imaging studies; format: in vivo; settings: preliminary clinical studies in progress, breast, lung, colorectal, gliomas, cervical cancer
[7] = tested on: nude mice with induced Hep-G2 lesions; experiment: Micro-SPECT/CT imaging and tumor SUV; settings: for tumor SUVmax, the mouse shown in Figure 7: one nude mouse; for tumor SUVmax, the mouse shown in Figure 7 / tumor SUVmax: right thigh; for tumor SUVmax: Hep-G2 tumor
Description: Hep-G2 tumors were induced in mice (n = 15) by subcutaneous injection (right thigh; positive control) of 1 × 10^6 cells suspended in 0.2 mL of phosphate-buffered saline. Killed Klebsiella pneumoniae bacteria (heated for 2 h at 1000 °C and verified for absence of growth after culturing), aseptically suspended in 0.2 mL of PBS (1 × 10^6 bacteria), were subcutaneously administered into the left thigh of mice in order to induce inflammation (negative control). After the tumor was visible, ^99mTc-iFAP (50 µL, 18 MBq, 7 nmol of iFAP) was administered intravenously into the tail of each mouse. Three mice were selected for micro-SPECT/CT imaging, whereas the rest were sacrificed to be used in the biodistribution study. […] After the mice were sacrificed, the blood and main organs were removed, weighted and their radioactivity measured using a Na(Tl) detector, in order to calculate the percentage of the injected dose per gram of tissue (%ID/g) by using an initial standard volume (100% of the initial injected activity). Biokinetic models of the four main target tissues/organs (blood, tumor, liver and kidneys) were obtained by fitting ^99mTc-iFAP time-activity curves to functions with two or three exponential terms Equation (2):(2) A(t)=Ae^−at+Be^−bt+Ce^−ct

For `C[C@@H](NC(=O)c1ccc(NN)nc1)C(=O)N1CCC[C@H]1B(O)O` [iFAP, ((R)-1-((6-hydrazinylnicotinoyl)-D-alanyl)pyrrolidin-2-yl) boronic acid], the adverse effects [1] was “did not show adverse effects”.
For “^99mTc-((R)-1-((6-hydrazinylnicotinoyl)-D-alanyl) pyrrolidin-2-yl) boronic acid [^99mTc-iFAP]”, the “radiochemical purity after 24 h of labeling” value [2] was “greater than 97%”, the “stability in fresh human serum” value ([3]; 30 min, 3 h and 24 h, 37 °C) was “remained stable” and the “99mTc-colloid as activity retained in the column” value ([3]; from percentage of recovered activity, size-exclusion HPLC) was 0.2%. For the same compound, the “transchelation of 99mTc to cysteine” value ([3]; human serum, 37 °C) was “does not occur”, the serum protein binding ([3]; human serum, 37 °C, 30 min) was 0.3 ± 0.1% and the serum protein binding ([3]; human serum, 37 °C, 3 h) was 0.9 ± 0.2%. The “radiochemical stability in human serum” value ([3]; human serum, 37 °C, 24 h) was over 95%, the serum protein binding ([3]; human serum, 37 °C, 24 h) was 2.1 ± 0.3% and the “internalization rate in N30 cells” value [4] was “rather low”. For the same compound, the “cellular uptake in N30 compared to fibroblasts” value ([4]; human fibroblasts FAP negative control, p < 0.05, n = 6) was “increased”, the “Biodistribution, Blood” value ([5]; 15 min) was 2.07 ± 0.63 %ID/g and the “Biodistribution, Blood” value ([5]; 30 min) was 1.02 ± 0.32 %ID/g. For the same compound, the “Biodistribution, Blood” value ([5]; 2 h) was 0.33 ± 0.05 %ID/g, the “Biodistribution, Blood” value ([5]; 24 h) was 0.01 ± 0.01 %ID/g and the “Biodistribution, Bone” value ([5]; 15 min) was 0.20 ± 0.09 %ID/g. For the same compound, the “Biodistribution, Bone” value ([5]; 30 min) was 0.14 ± 0.06 %ID/g, the “Biodistribution, Bone” value ([5]; 2 h) was 0.13 ± 0.02 %ID/g and the “Biodistribution, Heart” value ([5]; 15 min) was 1.75 ± 0.08 %ID/g. For the same compound, the “Biodistribution, Heart” value ([5]; 30 min) was 0.88 ± 0.23 %ID/g, the “Biodistribution, Heart” value ([5]; 2 h) was 0.19 ± 0.03 %ID/g and the “Biodistribution, Tumor” value ([5]; Hep-G2 tumor, 15 min) was 9.87 ± 1.94 %ID/g. The “Biodistribution, Tumor” value ([5]; Hep-G2 tumor, 30 min) was 7.05 ± 1.13 %ID/g, the “Biodistribution, Tumor” value ([5]; Hep-G2 tumor, 2 h) was 5.18 ± 0.82 %ID/g and the “Biodistribution, Tumor” value ([5]; Hep-G2 tumor, 24 h) was 2.37 ± 0.26 %ID/g. For the same compound, the tumor fast elimination constant (λeff) ([5]; Hep-G2 tumor, biokinetic model) was 0.41 h⁻¹, the tumor slow elimination constant (λeff) ([5]; Hep-G2 tumor, biokinetic model) was 0.12 h⁻¹ and the “Biodistribution, Intestine” value ([5]; 15 min) was 1.42 ± 0.74 %ID/g. The “Biodistribution, Intestine” value ([5]; 30 min) was 0.93 ± 0.14 %ID/g, the “Biodistribution, Intestine” value ([5]; 2 h) was 0.22 ± 0.10 %ID/g and the “Biodistribution, Kidneys” value ([5]; 15 min) was 13.85 ± 2.27 %ID/g. The “Biodistribution, Kidneys” value ([5]; 30 min) was 11.18 ± 1.54 %ID/g, the “Biodistribution, Kidneys” value ([5]; 2 h) was 7.46 ± 1.02 %ID/g and the “Biodistribution, Kidneys” value ([5]; 24 h) was 1.89 ± 0.53 %ID/g. The “Biodistribution, Liver” value ([5]; 15 min) was 2.78 ± 0.42 %ID/g, the “Biodistribution, Liver” value ([5]; 30 min) was 2.14 ± 0.51 %ID/g and the “Biodistribution, Liver” value ([5]; 2 h) was 1.05 ± 0.29 %ID/g. For the same compound, the “Biodistribution, Liver” value ([5]; 24 h) was 0.05 ± 0.03 %ID/g, the “Biodistribution, Lung” value ([5]; 15 min) was 1.11 ± 0.51 %ID/g and the “Biodistribution, Lung” value ([5]; 30 min) was 0.65 ± 0.19 %ID/g. For the same compound, the “Biodistribution, Lung” value ([5]; 2 h) was 0.02 ± 0.01 %ID/g, the “Biodistribution, Muscle (left thigh)” value ([5]; 15 min) was 0.39 ± 0.15 %ID/g and the “Biodistribution, Muscle (left thigh)” value ([5]; 30 min) was 0.31 ± 0.11 %ID/g. The “Biodistribution, Muscle (left thigh)” value ([5]; 2 h) was 0.18 ± 0.06 %ID/g, the “Biodistribution, Pancreas” value ([5]; 15 min) was 0.64 ± 0.10 %ID/g and the “Biodistribution, Pancreas” value ([5]; 30 min) was 0.31 ± 0.12 %ID/g. The “Biodistribution, Pancreas” value ([5]; 2 h) was 0.12 ± 0.04 %ID/g, the “Biodistribution, Spleen” value ([5]; 15 min) was 1.07 ± 0.17 %ID/g and the “Biodistribution, Spleen” value ([5]; 30 min) was 0.82 ± 0.04 %ID/g. The “Biodistribution, Spleen” value ([5]; 2 h) was 0.15 ± 0.05 %ID/g, the “Biodistribution, Stomach” value ([5]; 15 min) was 0.71 ± 0.08 %ID/g and the “Biodistribution, Stomach” value ([5]; 30 min) was 0.39 ± 0.12 %ID/g. The “Biodistribution, Stomach” value ([5]; 2 h) was 0.25 ± 0.03 %ID/g, the “fraction of radiotracer eliminated from blood, fast phase” value ([5]; blood, biokinetic model, fast) was 88.6% and the “fraction of radiotracer eliminated from blood, slow phase” value ([5]; blood, biokinetic model, slow) was 11.4%. The “blood half-life (slow)” value ([5]; blood, t1/2 = ln2/0.27) was 154 min, the “blood half-life (fast)” value ([5]; blood, t1/2 = ln2/2.93) was 14.4 min and the “kidney half-life, second phase” value ([5]; kidneys, t1/2 = ln2/1.54) was 27 min. The “kidney half-life (fast)” value ([5]; kidneys, t1/2 = ln2/2.71) was 15.6 min, the “fraction of activity eliminated from kidneys, fast phase” value ([5]; kidneys, triexponential model, fast) was 49.4% and the “fraction of activity eliminated from kidneys, second phase” value ([5]; kidneys, triexponential model, second phase) was 6.3%. For the same compound, the “fraction of activity eliminated from kidneys, slow phase” value ([5]; kidneys, triexponential model, slow) was 44.3%, the “sensitivity to detect the tumor microenvironment” value [6] was “high sensitivity” and the “tumor SUVmax, the mouse shown in Figure 7” value ([7]; 30 min) was 5.6. For the same compound, the “tumor SUVmax” value ([7]; 30 min after administration) was 5.0 ± 1.2, the “tumor SUVmax, the mouse shown in Figure 7” value ([7]; 24 h) was 2.4 and the “tumor SUVmax” value ([7]; 24 h after administration) was 2.7 ± 0.6. The “radiotracer uptake in left thigh with inflammation induced by killed bacteria (negative control)” value ([7]; micro-SPECT/CT, left thigh) was “no radiotracer uptake was observed”.
